Experimental data reported in patent US20230190690A1, “[…] AND/OR […] FOR CORONAVIRUS DISEASE 2019 (COVID-19)” (NEOPHARMA JAPAN CO., LTD., priority 2020, published 2023).

Tested on: variants of SARS-CoV-2
Assay: Infection of cells with a SARS-CoV-2 variant in the same manner
Assay type: cell-based
Conditions: cells infected with a variant in the same manner

**Q.** How did the “inhibitory effect on SARS-CoV-2 infection and/or proliferation (variant)” value turn out when NCC(=O)CCC(=O)O [5-ALA, 5-aminolevulinic acid] was run?
**A.** inhibitory effect on SARS-CoV-2 infection and/or proliferation is expected
